From the supplement of paper PMC10307832

Tests used:
Assay in all cases: relative viability (nuclei count vs DMSO), 5 days (fraction); higher = more cells survive
Trametinib + Palbociclib = compound: CC(=O)Nc1cccc(-n2c(=O)n(C3CC3)c(=O)c3c(Nc4ccc(I)cc4F)n(C)c(=O)c(C)c32)c1 [Trametinib] + CC(=O)c1c(C)c2cnc(Nc3ccc(N4CCNCC4)cn3)nc2n(C2CCCC2)c1=O [Palbociclib] (partner 0.5 µM)
Outline: (§1)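 Lung cancer cell lines in 1536-well plates got either a single drug or a fixed anchor-drug dose together with five library-drug doses (not always all listed) in √10 steps, by pin tool, on the day after seeding. Nuclei were counted after 5 days, and relative viability is the treated-to-vehicle ratio of nuclei counts. Values are medians of duplicate plates.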

Trametinib + Dasatinib = compound: CC(=O)Nc1cccc(-n2c(=O)n(C3CC3)c(=O)c3c(Nc4ccc(I)cc4F)n(C)c(=O)c(C)c32)c1 [Trametinib] + Cc1nc(Nc2ncc(C(=O)Nc3c(C)cccc3Cl)s2)cc(N2CCN(CCO)CC2)n1 [Dasatinib] (partner 0.075 µM)
Outline: as §1

Trametinib + Decitabine = compound: CC(=O)Nc1cccc(-n2c(=O)n(C3CC3)c(=O)c3c(Nc4ccc(I)cc4F)n(C)c(=O)c(C)c32)c1 [Trametinib] + Nc1ncn([C@H]2C[C@H](O)[C@@H](CO)O2)c(=O)n1 [Decitabine] (partner 2 µM)
Outline: as §1

Trametinib + Vorinostat = compound: CC(=O)Nc1cccc(-n2c(=O)n(C3CC3)c(=O)c3c(Nc4ccc(I)cc4F)n(C)c(=O)c(C)c32)c1 [Trametinib] + O=C(CCCCCCC(=O)Nc1ccccc1)NO [Vorinostat] (partner 1 µM)
Outline: as §1

Row | Cell Line | relative viability (Trametinib + Palbociclib; first compound 0.0025 µM) | relative viability (Trametinib + Palbociclib; first compound 0.007906 µM) | relative viability (Trametinib + Palbociclib; first compound 0.025 µM) | relative viability (Trametinib + Palbociclib; first compound 0.07906 µM) | relative viability (Trametinib + Palbociclib; first compound 0.25 µM) | relative viability (Trametinib + Dasatinib; first compound 0.0025 µM) | relative viability (Trametinib + Dasatinib; first compound 0.007906 µM) | relative viability (Trametinib + Dasatinib; first compound 0.025 µM) | relative viability (Trametinib + Dasatinib; first compound 0.07906 µM) | relative viability (Trametinib + Dasatinib; first compound 0.25 µM) | relative viability (Trametinib + Decitabine; first compound 0.0025 µM) | relative viability (Trametinib + Decitabine; first compound 0.007906 µM) | relative viability (Trametinib + Decitabine; first compound 0.025 µM) | relative viability (Trametinib + Decitabine; first compound 0.07906 µM) | relative viability (Trametinib + Decitabine; first compound 0.25 µM) | relative viability (Trametinib + Vorinostat; first compound 0.0025 µM) | relative viability (Trametinib + Vorinostat; first compound 0.007906 µM) | relative viability (Trametinib + Vorinostat; first compound 0.025 µM) | relative viability (Trametinib + Vorinostat; first compound 0.07906 µM) | relative viability (Trametinib + Vorinostat; first compound 0.25 µM)
1 | NCI-H1395 | 0.56 | 0.562 | 0.517 | 0.567 | 0.489 | 0.44 | 0.662 | 0.454 | 0.378 | 0.345 | 0.705 | 0.597 | 0.736 | 0.693 | 0.555 | 0.78 | 0.627 | 0.593 | 0.415 | 0.384
2 | NCI-H1437 | 0.319 | 0.226 | 0.204 | 0.196 | 0.211 | 0.374 | 0.207 | 0.162 | 0.118 | 0.217 | 0.574 | 0.471 | 0.557 | 0.394 | 0.431 | 0.813 | 0.642 | 0.516 | 0.447 | 0.377
3 | NCI-H1650 | 0.34 | 0.38 | 0.34 | 0.357 | 0.158 | 0.337 | 0.368 | 0.344 | 0.298 | 0.16 | 0.39 | 0.467 | 0.369 | 0.399 | 0.206 | 0.502 | 0.625 | 0.572 | 0.45 | 0.288
4 | NCI-H1651 | 0.489 | 0.501 | 0.51 | 0.459 | 0.432 | 0.487 | 0.384 | 0.404 | 0.284 | 0.217 | 0.559 | 0.689 | 0.48 | 0.422 | 0.333 | 0.546 | 0.546 | 0.466 | 0.505 | 0.505
5 | NCI-H1666 | 0.695 | 0.662 | 0.665 | 0.66 | 0.686 | 0.812 | 0.841 | 0.755 | 0.666 | 0.506 | 0.742 | 0.684 | 0.622 | 0.602 | 0.5 | 0.989 | 0.946 | 0.871 | 0.861 | 0.713
6 | NCI-H1734 | 0.337 | 0.353 |  | 0.292 | 0.241 | 0.54 | 0.592 | 0.399 | 0.56 | 0.387 | 0.508 | 0.438 |  | 0.426 | 0.453 | 0.812 | 0.802 |  | 0.747 | 0.356
7 | NCI-H1755 | 0.425 | 0.406 | 0.384 | 0.392 | 0.365 | 0.409 | 0.433 | 0.492 | 0.427 | 0.322 | 0.72 | 0.703 | 0.679 | 0.678 | 0.594 | 0.829 | 0.698 | 0.686 | 0.735 | 0.747
8 | NCI-H1793 | 0.277 | 0.242 | 0.225 | 0.213 | 0.192 | 0.26 | 0.25 | 0.244 | 0.212 | 0.242 | 0.458 | 0.4 | 0.447 | 0.334 | 0.228 | 0.579 | 0.432 | 0.317 | 0.317 | 0.221
9 | NCI-H1915 | 0.477 | 0.382 | 0.196 | 0.19 | 0.143 | 0.273 | 0.203 | 0.196 | 0.109 | 0.0747 | 0.268 | 0.248 | 0.24 | 0.227 | 0.188 | 0.558 | 0.575 | 0.466 | 0.368 | 0.289
10 | NCI-H1944 | 0.316 | 0.246 | 0.223 | 0.207 | 0.163 | 0.193 | 0.177 | 0.164 | 0.144 | 0.145 | 0.446 | 0.379 | 0.403 | 0.386 | 0.294 | 0.556 | 0.387 | 0.382 | 0.348 | 0.28
11 | NCI-H1975 | 0.543 | 0.349 | 0.506 | 0.19 | 0.129 | 0.28 | 0.218 | 0.15 | 0.172 | 0.123 | 0.332 | 0.336 | 0.345 | 0.261 | 0.278 | 0.643 | 0.542 | 0.48 | 0.456 | 0.351
12 | NCI-H1993 | 0.553 | 0.526 | 0.548 | 0.61 | 0.448 | 0.51 | 0.521 | 0.505 | 0.521 | 0.551 | 0.556 | 0.567 | 0.582 | 0.57 | 0.524 | 0.681 | 0.553 | 0.339 | 0.576 | 0.304
13 | NCI-H2009 | 0.138 | 0.135 | 0.109 | 0.135 | 0.125 | 0.203 | 0.169 | 0.143 | 0.168 | 0.157 | 0.306 | 0.303 | 0.247 | 0.273 | 0.267 | 0.76 | 0.634 | 0.341 | 0.354 | 0.336
14 | NCI-H2023 | 0.348 | 0.3 | 0.24 | 0.196 | 0.119 | 0.484 | 0.485 | 0.515 | 0.34 | 0.221 | 0.211 | 0.187 | 0.237 | 0.207 | 0.154 | 0.683 | 0.477 | 0.472 | 0.541 | 0.136
15 | NCI-H2085 | 0.494 | 0.421 | 0.371 | 0.395 | 0.406 | 0.215 | 0.185 | 0.233 | 0.213 | 0.222 | 0.544 | 0.558 | 0.552 | 0.629 | 0.61 | 0.695 | 0.718 | 0.501 | 0.609 | 0.563
16 | NCI-H2087 | 0.162 | 0.137 | 0.127 | 0.111 | 0.0967 | 0.366 | 0.236 | 0.117 | 0.127 | 0.156 | 0.207 | 0.203 | 0.148 | 0.117 | 0.125 | 0.595 | 0.368 | 0.463 | 0.237 | 0.12
